Data: PubChem BioAssay AID330 (DTP/NCI, 2004)
Values joined by “and” are separate entries in the source; they are usually repeats but may differ in a detail not shown here. Equal entries are not always repeated. Toxic doses and inconclusive results are not listed. The calls were made as follows: active = survival T/C of 150% or more; inactive = T/C below 125% in these data.

Tested on: P388 leukemia ip, CD2F1 mice, survival T/C
Assay: NCI In Vivo Anticancer Drug Screen. Data for tumor model P388 Leukemia (intraperitoneal) in CD2F1 (CDF1) mice
Settings: endpoint: median survival time, higher = longer survival
Method in brief: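 Mice carrying the transplanted tumor received test compound or vehicle. Survival was recorded in each group, and the value is the treated-group measurement divided by that of the vehicle-treated control group.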

[1] = dose: 50.0 mg/kg/injection, schedule: Q01DX009 (ip), vehicle: saline
[2] = dose: 100.0 mg/kg/injection, schedule: Q01DX009 (ip), vehicle: saline
[3] = dose: 200.0 mg/kg/injection, schedule: Q01DX009 (ip), vehicle: saline
[4] = dose: 100.0 mg/kg/injection, schedule: Q04DX003 (ip), vehicle: saline
[5] = dose: 50.0 mg/kg/injection, schedule: Q01DX009 (ip), vehicle: saline with Tween-80
[6] = dose: 50.0 mg/kg/injection, schedule: Q01DX005 (ip), vehicle: Klucel (hydroxypropylcellulose) (HPC)

Measured: T/C

O=P1(NCCCl)OCCCN1CCCl (centres undefined)
active: dose: 25.0 mg/kg/injection, schedule: Q01DX009 (ip), vehicle: saline 184 % of control | dose: 30.0 mg/kg/injection, schedule: Q01DX005 (iv), vehicle: saline 157 % of control | [1] 270 % of control | dose: 60.0 mg/kg/injection, schedule: Q01DX005 (ip), vehicle: saline 195 % of control | dose: 60.0 mg/kg/injection, schedule: Q01DX005 (iv), vehicle: saline 186 % of control | [2] 282 % of control | dose: 120.0 mg/kg/injection, schedule: Q01DX005 (ip), vehicle: saline 280 % of control | dose: 120.0 mg/kg/injection, schedule: Q01DX005 (iv), vehicle: saline 241 % of control | dose: 240.0 mg/kg/injection, schedule: Q01DX005 (ip), vehicle: saline 280 % of control | dose: 240.0 mg/kg/injection, schedule: Q01DX005 (iv), vehicle: saline 252 % of control | dose: 289.0 mg/kg/injection, schedule: Q01DX001 (ip), vehicle: saline 233 % of control | dose: 431.0 mg/kg/injection, schedule: Q01DX001 (ip), vehicle: saline 582 % of control | dose: 538.0 mg/kg/injection, schedule: Q01DX001 (ip), vehicle: saline 582 % of control | dose: 646.0 mg/kg/injection, schedule: Q01DX001 (ip), vehicle: saline 242 % of control
inactive: [3] 111 % of control

COC(=O)C(C(=O)OC)=C1C(=O)OCC1(C)C
inactive: [4] 101 % of control | dose: 200.0 mg/kg/injection, schedule: Q04DX003 (ip), vehicle: saline 100 % of control | dose: 400.0 mg/kg/injection, schedule: Q04DX003 (ip), vehicle: saline 100 % of control

C=C1C(=O)OC2C/C(C=O)=C/CC/C(C)=C/C(O)C12 (centres undefined)
inactive: dose: 9.0 mg/kg/injection, schedule: Q01DX005 (ip), vehicle: Klucel (hydroxypropylcellulose) (HPC) 96 % of control | dose: 18.0 mg/kg/injection, schedule: Q01DX005 (ip), vehicle: Klucel (hydroxypropylcellulose) (HPC) 99 % of control | dose: 36.0 mg/kg/injection, schedule: Q01DX005 (ip), vehicle: Klucel (hydroxypropylcellulose) (HPC) 105 % of control | dose: 72.0 mg/kg/injection, schedule: Q01DX005 (ip), vehicle: Klucel (hydroxypropylcellulose) (HPC) 106 % of control

C/C(=C\c1ccc(OCC(=O)O)c2ccccc12)[N+](=O)[O-]
inactive: dose: 25.0 mg/kg/injection, schedule: Q01DX001 (ip), vehicle: saline with Tween-80 110 % of control | dose: 50.0 mg/kg/injection, schedule: Q01DX001 (ip), vehicle: saline with Tween-80 111 % of control | dose: 100.0 mg/kg/injection, schedule: Q01DX001 (ip), vehicle: saline with Tween-80 101 % of control

CCN1c2ccccc2C(Cl)(c2ccc(N(C)C)cc2)c2ccccc21
inactive: dose: 6.25 mg/kg/injection, schedule: Q01DX009 (ip), vehicle: saline 116 % of control | dose: 12.5 mg/kg/injection, schedule: Q01DX009 (ip), vehicle: saline 120 % of control

COc1ccc(NC(=O)c2ccc(C(=O)Nc3ccc(OC)cc3)cc2)cc1
inactive: dose: 50.0 mg/kg/injection, schedule: Q01DX001 (ip), vehicle: other 90 % of control | dose: 100.0 mg/kg/injection, schedule: Q01DX001 (ip), vehicle: other 95 % of control | dose: 200.0 mg/kg/injection, schedule: Q01DX001 (ip), vehicle: other 90 % of control | dose: 400.0 mg/kg/injection, schedule: Q01DX001 (ip), vehicle: other 95 % of control

COCCN1CC(=O)N2Cc3ccccc3CN2C(=O)C1
inactive: dose: 12.5 mg/kg/injection, schedule: Q01DX005 (ip), vehicle: saline with Tween-80 107 % of control | dose: 25.0 mg/kg/injection, schedule: Q01DX005 (ip), vehicle: saline with Tween-80 105 % of control | dose: 50.0 mg/kg/injection, schedule: Q01DX005 (ip), vehicle: saline with Tween-80 100 % of control and 101 % of control | dose: 200.0 mg/kg/injection, schedule: Q01DX005 (ip), vehicle: saline with Tween-80 101 % of control

c1ccc2c(c1)Sc1ccccc1N2CC1CN2CCC1CC2 (centres undefined)
inactive: dose: 6.25 mg/kg/injection, schedule: Q01DX009 (ip), vehicle: saline with Tween-80 107 % of control | dose: 12.5 mg/kg/injection, schedule: Q01DX009 (ip), vehicle: saline with Tween-80 98 % of control and 114 % of control | dose: 25.0 mg/kg/injection, schedule: Q01DX009 (ip), vehicle: saline with Tween-80 112 % of control and 123 % of control | [5] 104 % of control

COc1cc(CNc2cccc(F)c2)cc(OC)c1OC
inactive: [6] 100 % of control | dose: 100.0 mg/kg/injection, schedule: Q01DX005 (ip), vehicle: Klucel (hydroxypropylcellulose) (HPC) 110 % of control | dose: 200.0 mg/kg/injection, schedule: Q01DX005 (ip), vehicle: Klucel (hydroxypropylcellulose) (HPC) 89 % of control

CCCCC(CC)CSCN(CC)CC (centres undefined)
inactive: [1] 100 % of control | [2] 102 % of control | [3] 112 % of control

C/C=C/N1C(=O)C2C=CC1C(C(C)=O)C2 (centres undefined)
inactive: dose: 100.0 mg/kg/injection, schedule: Q04DX002 (ip), vehicle: saline 94 % of control | dose: 200.0 mg/kg/injection, schedule: Q04DX002 (ip), vehicle: saline 98 % of control | dose: 400.0 mg/kg/injection, schedule: Q04DX002 (ip), vehicle: saline 96 % of control

CCOC(=O)CC1(C)NC(=O)NC1=O (centres undefined)
inactive: dose: 50.0 mg/kg/injection, schedule: Q04DX003 (ip), vehicle: Klucel (hydroxypropylcellulose) (HPC) 108 % of control | dose: 100.0 mg/kg/injection, schedule: Q04DX003 (ip), vehicle: Klucel (hydroxypropylcellulose) (HPC) 100 % of control | dose: 200.0 mg/kg/injection, schedule: Q04DX003 (ip), vehicle: Klucel (hydroxypropylcellulose) (HPC) 101 % of control | dose: 400.0 mg/kg/injection, schedule: Q04DX003 (ip), vehicle: Klucel (hydroxypropylcellulose) (HPC) 100 % of control

c1ccc2c3[n+](ccc2c1)CCC[n+]1ccc2ccccc2c1-3
inactive: dose: 3.12 mg/kg/injection, schedule: Q01DX001 (ip), vehicle: saline 106 % of control | dose: 6.25 mg/kg/injection, schedule: Q01DX001 (ip), vehicle: saline 106 % of control | dose: 12.5 mg/kg/injection, schedule: Q01DX001 (ip), vehicle: saline 92 % of control

CCCCOc1ccc2nccc(N/N=C/c3ccc(OC)c4ccccc34)c2c1
inactive: dose: 12.5 mg/kg/injection, schedule: Q01DX005 (ip), vehicle: Klucel (hydroxypropylcellulose) (HPC) 88 % of control | dose: 25.0 mg/kg/injection, schedule: Q01DX005 (ip), vehicle: Klucel (hydroxypropylcellulose) (HPC) 88 % of control | [6] 92 % of control and 94 % of control

COc1cccc2c1C(=O)c1c(O)c3c(c(O)c1C2=O)C[C@@](O)(C(=O)CO)C[C@@H]3OC1CC(NCc2ccccc2)C(O)C(C)O1 (some centres undefined)
107 % of control and 224 % of control: dose: 6.25 mg/kg/injection, schedule: Q01DX009 (ip), vehicle: water
active: dose: 0.39 mg/kg/injection, schedule: Q01DX009 (ip), vehicle: water 150 % of control | dose: 0.78 mg/kg/injection, schedule: Q01DX009 (ip), vehicle: water 151 % of control | dose: 1.56 mg/kg/injection, schedule: Q01DX009 (ip), vehicle: water 153 % of control and 158 % of control | dose: 3.13 mg/kg/injection, schedule: Q01DX009 (ip), vehicle: water 175 % of control and 194 % of control | dose: 3.89 mg/kg/injection, schedule: Q04DX003 (ip), vehicle: water 163 % of control | dose: 6.48 mg/kg/injection, schedule: Q04DX003 (ip), vehicle: water 175 % of control | dose: 10.8 mg/kg/injection, schedule: Q04DX003 (ip), vehicle: water 201 % of control
inactive: dose: 18.0 mg/kg/injection, schedule: Q04DX003 (ip), vehicle: water 105 % of control | dose: 30.0 mg/kg/injection, schedule: Q04DX003 (ip), vehicle: water 94 % of control

CC1CN1P(=O)(OCCCl)N1CC1C (centres undefined)
inactive: dose: 44.0 mg/kg/injection, schedule: Q04DX003 (ip), vehicle: saline 113 % of control | [1] 120 % of control | dose: 66.0 mg/kg/injection, schedule: Q04DX003 (ip), vehicle: saline 113 % of control | [2] 120 % of control | [4] 118 % of control | dose: 150.0 mg/kg/injection, schedule: Q04DX003 (ip), vehicle: saline 86 % of control

COc1cc2c(cc1OC)C13CCN4CC5=CCOC6CC(=O)N2C1C6C5CC43 (centres undefined) (tested in a mixture with another compound)
inactive: dose: 25.0 mg/kg/injection, schedule: Q04DX003 (ip), vehicle: saline with Tween-80 100 % of control | [5] 104 % of control | dose: 50.0 mg/kg/injection, schedule: Q04DX003 (ip), vehicle: saline with Tween-80 104 % of control | dose: 100.0 mg/kg/injection, schedule: Q01DX009 (ip), vehicle: saline with Tween-80 106 % of control | dose: 100.0 mg/kg/injection, schedule: Q04DX003 (ip), vehicle: saline with Tween-80 104 % of control
